# Data published in patent publication US11414418B2, “Compounds useful as immunomodulators” (Bristol-Myers Squibb Company, priority 2018, dated 2022).
# Molecular target: PD-1/PD-L1 interaction (PD-1-Ig / PD-L1-His) (Homo sapiens (Human), UniProt Q9NZQ7)
# Test: PD-1/PD-L1 Homogenous Time-Resolved Fluorescence (HTRF) binding assay
# Settings: PD-L1-His 10 nM final, PD-1-Ig 20 nM final
# Description: The ability of the compounds of formula (I) to bind to PD-L1 was investigated using a PD-1/PD-L1 Homogenous Time-Resolved Fluorescence (HTRF) binding assay.
# 1. Homogenous Time-Resolved Fluorescence (HTRF) Binding Assay.
# The interaction of PD-1 and PD-L1 can be assessed using soluble, purified preparations of the extracellular domains of the two proteins. The PD-1 and PD-L1 protein extracellular domains were expressed as fusion proteins with detection tags, for PD-1, the tag was the Fc portion of Immunoglobulin (PD-1-Ig) and for PD-L1 it was the 6 histidine motif (PD-L1-His). All binding studies were performed in an HTRF assay buffer consisting of dPBS supplemented with 0.1% […] bovine serum albumin and 0.05% (v/v) Tween-20. For the h/PD-L1-His binding assay, inhibitors were pre-incubated with PD-L1-His (10 nM final) for 15 m in 4 μl of assay buffer, followed by addition of PD-1-Ig (20 nM final) in 1 μl of assay buffer and further incubation for 15 m. HTRF detection was achieved using europium crypate-labeled anti-Ig (1 nM final) and allophycocyanin (APC) labeled anti-His (20 nM final). Antibodies were diluted in HTRF detection buffer and 5 μl was dispensed on top of the binding reaction. The reaction mixture was allowed to equilibrate for 30 minutes and the resulting signal (665 nm/620 nm ratio) was obtained using an EnVision fluorometer. Additional binding assays were established between the human proteins PD-1-Ig/PD-L2-His (20 & 5 nM, respectively) and CD80-His/PD-L1-Ig (100 & 10 nM, respectively).
# Recombinant Proteins: Human PD-1 (25-167) with a C-terminal human Fc domain of immunoglobulin G (Ig) epitope tag [hPD-1 (25-167)-3S-IG] and human PD-L1 (18-239) with a C-terminal His epitope tag [hPD-L1 (18-239)-TVMV-His] were expressed in HEK293T cells and purified sequentially by ProteinA affinity chromatography and size exclusion chromatography. Human PD-L2-His and CD80-His was obtained through commercial sources.
# PD-1/PD-L1 interaction (PD-1-Ig / PD-L1-His), sequence (Q9NZQ7 other isoform, or with tags, fused parts or gaps): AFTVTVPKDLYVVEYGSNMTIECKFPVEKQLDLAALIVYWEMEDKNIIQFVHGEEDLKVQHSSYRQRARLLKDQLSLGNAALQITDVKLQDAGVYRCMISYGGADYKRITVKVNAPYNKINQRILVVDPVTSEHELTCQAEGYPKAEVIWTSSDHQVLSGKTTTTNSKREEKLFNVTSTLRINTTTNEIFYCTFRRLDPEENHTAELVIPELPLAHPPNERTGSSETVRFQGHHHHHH
row,IC50 [µM],SMILES
1,> 10,"C[C@@](CO)(NCc1cc(Cl)c(CCC(=O)N2CCCC3(CCCN(C(=O)CCCN4CC[C@@H](OCc5ccccc5)C4)C3)C2)cc1OCc1cncc(C#N)c1)C(=O)O (stereo partly drawn) [Example 1004, (2S)-2-((4-(3-(8-(4-((R)-3-(benzyloxy)pyrrolidin-1-yl)butanoyl)-2,8-diazaspiro[5.5]undecan-2-yl)-3-oxopropyl)-5-chloro-2-((5-cyanopyridin-3-yl)methoxy)benzyl)amino)-3-hydroxy-2-methylpropanoic acid]"
2,> 2.5,"O=C(CCCN1CC[C@@H](OCc2ccccc2)C1)N1CCCC2(CCCN(C(=O)CCCN3CC[C@@H](OCc4ccccc4)C3)C2)C1 [Example 1001, 1,1′-(2,8-diazaspiro[5.5]undecane-2,8-diyl)bis(4-((R)-3-(benzyloxy)pyrrolidin-1-yl)butan-1-one)]"
3,0.84,"O=C(CCCN1CC[C@@H](O)C1)N1CCCC2(CCCN(C(=O)CCCN3CC[C@@H](O)C3)C2)C1 [Example 1002, 1,1′-(2,8-diazaspiro[5.5]undecane-2,8-diyl)bis(4-((R)-3-hydroxypyrrolidin-1-yl)butan-1-one)]"
4,> 10,"C[C@@](CO)(NCc1cc(Cl)c(CCC(=O)N2CCCC3(CCCN(C(=O)CCCN4CC[C@@H](OCc5ccccc5)C4)C3)C2)cc1OCc1cncc(C(N)=O)c1)C(=O)O (stereo partly drawn) [Example 1003, (2S)-2-((4-(3-(8-(4-((R)-3-(benzyloxy)pyrrolidin-1-yl)butanoyl)-2,8-diazaspiro[5.5]undecan-2-yl)-3-oxopropyl)-2-((5-carbamoylpyridin-3-yl)methoxy)-5-chlorobenzyl)amino)-3-hydroxy-2-methylpropanoic acid]"
5,> 10,"COC(=O)c1cncc(COc2cc(CCC(=O)N3CCCC4(CCCN(C(=O)CCCN5CC[C@@H](OCc6ccccc6)C5)C4)C3)c(Cl)cc2CN[C@@](C)(CO)C(=O)O)c1 (stereo partly drawn) [Example 1005, (2S)-2-((4-(3-(8-(4-((R)-3-(benzyloxy)pyrrolidin-1-yl)butanoyl)-2,8-diazaspiro[5.5]undecan-2-yl)-3-oxopropyl)-5-chloro-2-((5-(methoxycarbonyl)pyridin-3-yl)methoxy)benzyl)amino)-3-hydroxy-2-methylpropanoic acid]"
